# Measurements reported in patent US20220296637A1, “SODIUM THIOSULFATE GEL FOR PREVENTING OR REDUCING HEARING LOSS” (STICHTING HET NEDERLANDS KANKER INSTITUUT-ANTONI VAN …, priority 2019, published 2022).
# Assays:
# [1] = test system: cisplatin-induced hearing loss (CIHL); settings: cited from earlier work; for patients in whom CIHL was seen: 61 patients treated with STS (intravenous), 64 with cisplatin alone, p=0.00022; for overall survival: children with disseminated disease, additional intravenous STS vs cisplatin alone, p=0.009
# [2] = reported incidences vary widely amongst studies; cited from earlier work
# [3] = in vivo; cited from earlier work
# [4] = guinea pigs; cited from earlier work
# [5] = test system: cisplatin-induced hearing loss (CIHL); experiment: Phase 1 trial of transtympanic STS gel: audiometry (pure tone averages) for efficacy against cisplatin-induced hearing loss; format: in vivo, human; settings: for Δ PTA 0.5-1-2 kHz (posttreatment − baseline) / Δ PTA 1-2-4 kHz (posttreatment − baseline) / Δ PTA 8-10-12.5 kHz (posttreatment − baseline): STS-treated ears; for difference in ΔPTA3 in favour of the untreated ear: last non-responder
# Description: Arm A was a single-blind, placebo controlled, proof-of-concept study. A different application method was investigated in arm B, which was a non-blinded, non-placebo controlled, proof of concept arm. The ear to be treated with the transtympanic STS gel was assigned by randomisation in both arms. The study was performed at the Netherlands Cancer Institute in Amsterdam, the Netherlands. The protocol was approved by the institutional medical research ethics committee. The study is registered with the European Clinical Trials Database (EudraCT) (EudraCT: 2012-004653-80). […] Exclusion criteria were: known symptomatic brain or leptomeningeal metastases and relevant otological history (e.g. conductive hearing loss, vertigo). All patients gave written informed consent prior to start of study procedures. The ear to be treated with the transtympanic STS gel was assigned by randomisation in both arm A and arm B. Arm A concerned a single-blind study protocol in which the contralateral ear was treated with a placebo gel. Arm B was non-blinded and the contralateral ear was left untreated. The enrolment of patients was done by a treating physician. Randomisation was done via a randomisation program at the institutional trial centre. […] In arm B only the STS gel was prepared. Syringes with study medication were warmed up to body temperature (37° C.) for 30 minutes in an incubator ([…], Switzerland) to prevent hypo- or hypercaloric symptoms during or after injections. The syringe was connected to the (Braun, […]) needle via a 10 cm infusion line (BD Becton Dickenson connecta). […] To approach the eardrum in a perpendicular orientation. In arm A, the gels were administered through a […] grommet, which was placed for venting air to prevent barotrauma and/or pain while injecting. During this procedure we noticed there was backflow of the gel via the infusion needle backward into the external ear canal. Therefore, a different protocol for the transtympanic injection was chosen in arm B for the next 6 patients: the grommet was still placed in the anterior eardrum for ventilation of the middle ear, however, the STS gel was injected via the needle directly through the posterior part of the eardrum and indeed backflow into the external ear was not seen anymore. Topical anesthesia was applied using a few small (3×3 mm) gauzes with xylocaine 10% (lidocaine 100 mg/ml, AstraZeneca, United Kingdom) applied on the eardrum before placement of the grommet and the injections. During the injections, the patient was lying in a hospital bed with the upper body positioned 30 degrees upwards. After administration of the gel the patients head was turned 45 degrees contralateral. […] The specific positioning of the patient was in our view needed to for improved and/or prolonged exposure of the STS gel to the round window of the middle ear. […] If concomitant chemotherapy or radiotherapy was to be administered, this was done as per local protocol. […] Standard audiometry including air conduction (AC) and bone conduction (BC) thresholds was performed in a sound proof booth using the Decos Audiology Workstation. […] Six evaluable patients per study arm were considered sufficient to reach proof of concept based on the intra-patient comparison and the expected audiometric difference between the STS-treated and untreated/placebo treated ears. […] To study whether there was a significant difference in CIHL over time ([…]) between the STS ears and the untreated ears, the […] with paired samples was used.
# [6] = test system: cisplatin-induced hearing loss (CIHL); settings: cited from earlier work
# [7] = test system: cisplatin-induced hearing loss; settings: transtympanic STS gel (0.5 M, 0.1 ml, 24 hours prior to cisplatin); 13 patients; 3 to 10 kHz; not significant; cited from earlier work
smiles,measurement,setting,value
"N.N.[Cl][Pt][Cl] [Cisplatin, cis-diaminedichloroplatinum(II)]",patients in whom CIHL was seen,[1],56%
same,overall survival,[1],84%
same,occurrence of cisplatin-induced hearing loss in cisplatin-treated patients,[2],75-80%
"O=S([O-])([O-])=S.[Na+].[Na+] [STS, sodium thiosulfate]",oral bio-availability,[3],poor
same,"perilymph STS concentrations, transtympanic injections compared with intravenous infusion",[4],higher
same,patients in whom CIHL was seen,[1],29%
same,overall survival,[1],45%
same,Δ PTA 0.5-1-2 kHz (posttreatment − baseline),[5]; 4 patients with ototoxicity who responded to STS-gel,−0.4 dB HL
same,Δ PTA 1-2-4 kHz (posttreatment − baseline),[5]; 4 responders,−0.4 dB HL
same,Δ PTA 8-10-12.5 kHz (posttreatment − baseline),[5]; 4 responders,6.8 dB SPL
same,"occurrence of SNHL (ΔPTA3 ≥10 dB), STS-treated versus untreated ears","[5]; 12 STS-treated ears vs 12 untreated ears, McNemar p=0.125",no statistically significant difference
same,Δ PTA 1-2-4 kHz (posttreatment − baseline),[5]; all 12 patients,2.5 dB HL
same,Δ PTA 8-10-12.5 kHz (posttreatment − baseline),[5]; all 12 patients,8.8 dB SPL
same,"ΔPTA3 (8-10-12.5 kHz), overall","[5]; all 12 patients, STS-treated ears (untreated ears 12.7 dB)",8.8 dB
same,Δ PTA 0.5-1-2 kHz (posttreatment − baseline),"[5]; all 12 patients, directly after last cisplatin cycle minus baseline",2.1 dB HL
same,ΔPTA3,"[5]; four non-responders, STS-treated ears (untreated ears 15.2 dB)",14.3 dB
same,mean ΔPTA3,"[5]; four responders, STS-treated ears (untreated ears 25.2 dB)",6.8 dB
same,difference in ΔPTA3 between STS-treated ears and untreated ears,"[5]; four responders, in favour of STS-treated ear, range 11.7-33.3 dB",18.4 dB
same,difference in ΔPTA3 in favour of the untreated ear,[5]; at follow-up audiometry,2.3 dB SPL
same,difference in ΔPTA3 in favour of the untreated ear,[5]; directly after treatment,10.0 dB SPL
same,difference in ΔPTA3 between ears,[5]; three of the four non-responders,< 10 dB SPL
same,adverse events likely attributed to intravenous STS administration,[6]; children,"tumour progression and grade 3 infection, neutropenia, electrolyte disorders and anaemia"
same,relative risk of CIHL,"[6]; intravenous STS, 95% confidence interval 0.33-0.81",52%
same,reduction of the incidence of CIHL versus cisplatin alone,"[6]; intravenous STS, 109 children, p=0.002",48%
same,averaged hearing loss less in STS-treated ears than in untreated ears,[7],1.3 dB
